Laboratory results reported in ChEMBL document CHEMBL3351459, “Present status of quinoxaline motifs: excellent pathfinders in therapeutic medicine” (Eur J Med Chem, 2014).
In brackets after ≈: the same amount, converted by molar mass.

Legend:
[1] = system: Mycobacterium tuberculosis; experiment: Antimycobacterial activity against rifampicin-resistant Mycobacterium tuberculosis; format: functional
[2] = system: Mycobacterium tuberculosis; experiment: Antimycobacterial activity against isoniazid-resistant Mycobacterium tuberculosis; format: functional

CC(=O)c1c(C)[n+]([O-])c2ccc(Cl)cc2[n+]1[O-]
MIC [1]: ≤ 0.39 µg/mL
MIC [2]: 1.56 µg/mL (≈ 6.17 µM)
